Assay results reported in the supplement of paper PMC13380429.

Experiments:
Conditions in all cases: 72 h
Caco-2 [1] = assay: cell viability relative to DMSO; higher = less toxic
Calu-3 [2] = assay: as above
HepG2 [3] = assay: as above
U2OS [4] = assay: as above
Vero E6 [5] = assay: as above
Caco-2 [6] = assay: relative viability EC50 (midpoint between 100% and the lowest measured viability); higher = less toxic
Calu-3 [7] = assay: as above
HepG2 [8] = assay: as above
U2OS [9] = assay: as above
Vero E6 [10] = assay: as above
Caco-2 [11] = assay: drug sensitivity score (DSS) for viability; higher = more toxic; extreme values may be limits of the assay
Calu-3 [12] = assay: as above
HepG2 [13] = assay: as above
U2OS [14] = assay: as above
Vero E6 [15] = assay: as above

SMILES	cell viability (Caco-2 [1]; 1 nM)	cell viability (Caco-2 [1]; 10 nM)	cell viability (Caco-2 [1]; 100 nM)	cell viability (Caco-2 [1]; 1000 nM)	cell viability (Caco-2 [1]; 10000 nM)	cell viability (Calu-3 [2]; 1 nM)	cell viability (Calu-3 [2]; 10 nM)	cell viability (Calu-3 [2]; 100 nM)	cell viability (Calu-3 [2]; 1000 nM)	cell viability (Calu-3 [2]; 10000 nM)	cell viability (HepG2 [3]; 1 nM)	cell viability (HepG2 [3]; 10 nM)	cell viability (HepG2 [3]; 100 nM)	cell viability (HepG2 [3]; 1000 nM)	cell viability (HepG2 [3]; 10000 nM)	cell viability (U2OS [4]; 1 nM)	cell viability (U2OS [4]; 10 nM)	cell viability (U2OS [4]; 100 nM)	cell viability (U2OS [4]; 1000 nM)	cell viability (U2OS [4]; 10000 nM)	cell viability (Vero E6 [5]; 1 nM)	cell viability (Vero E6 [5]; 10 nM)	cell viability (Vero E6 [5]; 100 nM)	cell viability (Vero E6 [5]; 1000 nM)	cell viability (Vero E6 [5]; 10000 nM)	relative viability EC50 (Caco-2 [6])	relative viability EC50 (Calu-3 [7])	relative viability EC50 (HepG2 [8])	relative viability EC50 (U2OS [9])	relative viability EC50 (Vero E6 [10])	drug sensitivity score (Caco-2 [11])	drug sensitivity score (Calu-3 [12])	drug sensitivity score (HepG2 [13])	drug sensitivity score (U2OS [14])	drug sensitivity score (Vero E6 [15])
N#CC(C#N)=Cc1ccc(O)c(O)c1 [tyrphostin-AG-18]	88.2%	96.4%	93.9%	89.2%	91.6%	93.5%	104%	105%	107%	111%	93%	96.8%	97.7%	102%	87.9%	96.1%	98.1%	95.2%	96.5%	92.1%	96.4%	92.1%	96.6%	94.9%	94.9%	> 10 µM	> 10 µM	> 10 µM	> 10 µM	> 10 µM	0	0	0	0	0
CC(Oc1ccc(O)cc1)(P(=O)(O)O)P(=O)(O)O	110%	98.7%	98%	87.1%	104%	106%	88.6%	103%	84.8%	97.1%	106%	95.4%	97.6%	99.2%	102%	104%	99.5%	105%	98%	100%	96.5%	104%	97.7%	98.7%	95.8%	> 10 µM	> 10 µM	> 10 µM	> 10 µM	> 10 µM	0	0	0	0	0
CC(=O)N(CC(O)CO)c1c(I)c(C(=O)NCCO)c(I)c(C(=O)NCC(O)CO)c1I (stereo not given) [ioxilan]	103%	91.6%	93.6%	90.5%	90.6%	105%	96.9%	99.7%	101%	88.9%	105%	101%	86%	109%	90.8%	97.1%	97.1%	101%	92.8%	102%	113%	103%	93%	106%	101%	> 10 µM	> 10 µM	> 10 µM	> 10 µM	> 10 µM	0	0	0	0	0
NC(N)=Nc1nc(CSCCN/C=N/S(=O)(=O)c2ccc(Br)cc2)cs1 [ebrotidine]	97.8%	102%	95%	99.5%	99.9%	96%	101%	94.8%	101%	93.3%	98.2%	97.6%	112%	93.4%	86.5%	100%	103%	98.6%	106%	98.9%	88.7%	91.8%	97.7%	90.6%	105%	> 10 µM	> 10 µM	> 10 µM	> 10 µM	> 10 µM	0	0	0.5	0	0
COc1cc(OC)cc(C(=O)NNC(=O)Nc2cccc3ccccc23)c1 [TC-O-9311]	96.3%	112%	101%	102%	88%	84.2%	92.1%	93.6%	97.8%	107%	100%	101%	92.3%	90.9%	98.7%	99%	100%	98.3%	101%	98.4%	102%	102%	94.9%	94.1%	96%	> 10 µM	> 10 µM	> 10 µM	> 10 µM	> 10 µM	0	0	0	0	0
CC(C)(C)NCC(O)CSc1nc(-c2ccc(C(N)=O)s2)cs1 (stereo not given) [arotinolol]	105%	104%	90.6%	106%	107%	102%	98.4%	107%	94.1%	99.9%	88.7%	96.9%	100%	92.8%	104%	96%	100%	99.9%	102%	94.6%	103%	98.1%	106%	108%	98.4%	> 10 µM	> 10 µM	> 10 µM	> 10 µM	> 10 µM	0	0	0	0	0
CCOC(=O)[C@@H](C)Oc1ccc(Oc2nc3ccc(Cl)cc3o2)cc1 [fenoxaprop-p-ethyl]	102%	100%	103%	101%	97.2%	105%	99%	113%	110%	112%	97.9%	102%	103%	101%	108%	101%	97.9%	97.3%	101%	99.8%	96.8%	92.2%	93.8%	101%	115%	> 10 µM	> 10 µM	> 10 µM	> 10 µM	> 10 µM	0	0	0	0	0
N[C@@H](CCC(=O)N[C@@H](CSN=O)C(=O)NCC(=O)O)C(=O)O [S-nitrosoglutathione]	101%	98.2%	96.3%	87.9%	99.9%	94%	99.2%	93.9%	108%	108%	102%	98.4%	108%	91.7%	99%	98%	97.6%	92.9%	98.3%	101%	93.6%	97.2%	95.2%	95.2%	101%	> 10 µM	> 10 µM	> 10 µM	> 10 µM	> 10 µM	0	0	0	0	0
COc1cc(C[C@@H]2NCCc3cc(O)c(O)cc32)cc(OC)c1OC [trimethoquinol]	91.3%	114%	118%	107%	80.3%	91.7%	88.9%	101%	86%	95.7%	110%	99.2%	112%	90.6%	83.5%	89.5%	97%	97.3%	102%	107%	103%	93.1%	108%	93.8%	96.9%	> 10 µM	> 10 µM	> 10 µM	> 10 µM	> 10 µM	0.3	0	1.1	0	0
CC(C)(C)OC(=O)c1ncn2c1[C@@H]1CCCN1C(=O)c1c(Br)cccc1-2 [bretazenil]	94%	93.9%	99.3%	96.1%	100%	90%	92.9%	98.2%	99.8%	96%	83.1%	94.1%	95.2%	105%	103%	98.2%	98.8%	105%	92.6%	98.2%	91.1%	100%	95.5%	96.5%	104%	> 10 µM	> 10 µM	> 10 µM	> 10 µM	> 10 µM	0	0	0	0	0
O=c1[nH]ccc2cc(OC3CCNCC3)ccc12	89.7%	96.4%	99.7%	100%	106%	93.8%	106%	111%	127%	130%	98.1%	99.7%	108%	112%	106%	97.6%	98.2%	101%	96.3%	94.9%	97.1%	101%	89.6%	100%	92%	> 10 µM	> 10 µM	> 10 µM	> 10 µM	> 10 µM	0	0	0	0	0
CCCC[C@H](NC(=O)[C@@H]1[C@@H]2[C@H](CN1C(=O)[C@@H](NC(=O)NC1(CS(=O)(=O)C(C)(C)C)CCCCC1)C(C)(C)C)C2(C)C)C(=O)C(=O)NC1CC1 [narlaprevir]	100%	96.4%	102%	93.8%	95.5%	90.9%	108%	92.5%	94.5%	107%	102%	112%	96.3%	103%	94.7%	104%	98.8%	100%	96.9%	97.1%	98.1%	100%	102%	99.5%	87.8%	> 10 µM	> 10 µM	> 10 µM	> 10 µM	> 10 µM	0	0	0	0	0.1
